# PubChem BioAssay (NCI)
#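 Assay format: 96-well plates, 48-hour exposure. Here, GI50 denotes the concentration required for 50% inhibition of growth. TGI is the concentration that stops growth completely.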
# What was measured:
# Test in all cases: inhibition of tumour cell growth, NCI panel, 48 h
# CAKI-1 renal = test system: CAKI-1 renal
# RPMI-8226 leukemia = test system: RPMI-8226 leukemia
# CCRF-CEM leukemia = test system: CCRF-CEM leukemia
# UACC-257 melanoma = test system: UACC-257 melanoma
# MALME-3M melanoma = test system: MALME-3M melanoma
# ACHN renal = test system: ACHN renal
# NCI-H522 lung = test system: NCI-H522 lung
# DU-145 prostate = test system: DU-145 prostate
# NCI-H23 lung = test system: NCI-H23 lung
# BT-549 breast = test system: BT-549 breast
# HL-60(TB) leukemia = test system: HL-60(TB) leukemia
# K-562 leukemia = test system: K-562 leukemia
# HT29 colon = test system: HT29 colon
# PC-3 prostate = test system: PC-3 prostate
# UO-31 renal = test system: UO-31 renal
# MDA-MB-468 breast = test system: MDA-MB-468 breast
# OVCAR-3 ovarian = test system: OVCAR-3 ovarian
# A498 renal = test system: A498 renal
# OVCAR-8 ovarian = test system: OVCAR-8 ovarian
# OVCAR-5 ovarian = test system: OVCAR-5 ovarian
# NCI-H226 lung = test system: NCI-H226 lung
# SK-MEL-2 melanoma = test system: SK-MEL-2 melanoma
# EKVX NSCLC = test system: EKVX NSCLC
# 786-0 renal = test system: 786-0 renal
# SF-268 CNS = test system: SF-268 CNS
# HCT-15 colon = test system: HCT-15 colon
# NCI/ADR-RES ovarian = test system: NCI/ADR-RES ovarian
# NCI-H460 lung = test system: NCI-H460 lung
# TK-10 renal = test system: TK-10 renal
# SF-539 CNS = test system: SF-539 CNS
# HOP-62 NSCLC = test system: HOP-62 NSCLC
# T-47D breast = test system: T-47D breast
# M14 melanoma = test system: M14 melanoma
# MDA-MB-435 = test system: MDA-MB-435
# KM12 colon = test system: KM12 colon
# IGROV1 ovarian = test system: IGROV1 ovarian
# SNB-75 CNS = test system: SNB-75 CNS
# HOP-92 NSCLC = test system: HOP-92 NSCLC
# LOX IMVI melanoma = test system: LOX IMVI melanoma
# SW-620 colon = test system: SW-620 colon
# SK-OV-3 ovarian = test system: SK-OV-3 ovarian
# SK-MEL-28 melanoma = test system: SK-MEL-28 melanoma
# U251 CNS = test system: U251 CNS
# COLO 205 colon = test system: COLO 205 colon
# SK-MEL-5 melanoma = test system: SK-MEL-5 melanoma
# MCF7 breast = test system: MCF7 breast
# HS 578T breast = test system: HS 578T breast
# SF-295 CNS = test system: SF-295 CNS
# HCT-116 colon = test system: HCT-116 colon
# HCC-2998 colon = test system: HCC-2998 colon
# A549 NSCLC = test system: A549 NSCLC
compound,measurement,setting,value
CN(C)c1nc(NCCNS(=O)(=O)c2ccc(C3=Nc4c(N)nc(N)nc4NC(c4ccc(F)cc4)C3)cc2)nc(Nc2ccc(F)cc2)n1 (configuration not stated),GI50,CAKI-1 renal,6.5 µM
same,TGI,CAKI-1 renal,> 100 µM
same,GI50,RPMI-8226 leukemia,5.25 µM
same,TGI,RPMI-8226 leukemia,> 100 µM
same,GI50,CCRF-CEM leukemia,3.99 µM
same,TGI,CCRF-CEM leukemia,> 100 µM
same,GI50,UACC-257 melanoma,11.4 µM
same,TGI,UACC-257 melanoma,> 100 µM
same,GI50,MALME-3M melanoma,6.28 µM
same,TGI,MALME-3M melanoma,> 100 µM
same,GI50,ACHN renal,> 100 µM
same,TGI,ACHN renal,> 100 µM
same,GI50,NCI-H522 lung,34.8 µM
same,TGI,NCI-H522 lung,> 100 µM
same,GI50,DU-145 prostate,52 µM
same,TGI,DU-145 prostate,> 100 µM
same,GI50,NCI-H23 lung,54.1 µM
same,TGI,NCI-H23 lung,> 100 µM
same,GI50,BT-549 breast,3.26 µM
same,TGI,BT-549 breast,18.2 µM
same,GI50,HL-60(TB) leukemia,3.12 µM
same,TGI,HL-60(TB) leukemia,> 100 µM
same,GI50,K-562 leukemia,2800 nM
same,TGI,K-562 leukemia,> 100 µM
same,GI50,HT29 colon,3.88 µM
same,TGI,HT29 colon,> 100 µM
same,GI50,PC-3 prostate,5.04 µM
same,TGI,PC-3 prostate,> 100 µM
same,GI50,UO-31 renal,> 100 µM
same,TGI,UO-31 renal,> 100 µM
same,GI50,MDA-MB-468 breast,2150 nM
same,TGI,MDA-MB-468 breast,6.24 µM
same,GI50,OVCAR-3 ovarian,8.09 µM
same,TGI,OVCAR-3 ovarian,> 100 µM
same,GI50,A498 renal,22.1 µM
same,TGI,A498 renal,> 100 µM
same,GI50,OVCAR-8 ovarian,12 µM
same,TGI,OVCAR-8 ovarian,> 100 µM
same,GI50,OVCAR-5 ovarian,> 100 µM
same,TGI,OVCAR-5 ovarian,> 100 µM
same,GI50,NCI-H226 lung,> 100 µM
same,TGI,NCI-H226 lung,> 100 µM
same,GI50,SK-MEL-2 melanoma,8.17 µM
same,TGI,SK-MEL-2 melanoma,29 µM
same,GI50,EKVX NSCLC,5.17 µM
same,TGI,EKVX NSCLC,> 100 µM
same,GI50,786-0 renal,4.77 µM
same,TGI,786-0 renal,> 100 µM
same,GI50,SF-268 CNS,4.83 µM
same,TGI,SF-268 CNS,> 100 µM
same,GI50,HCT-15 colon,> 100 µM
same,TGI,HCT-15 colon,> 100 µM
same,GI50,NCI/ADR-RES ovarian,> 100 µM
same,TGI,NCI/ADR-RES ovarian,> 100 µM
same,GI50,NCI-H460 lung,4.74 µM
same,TGI,NCI-H460 lung,> 100 µM
same,GI50,TK-10 renal,> 100 µM
same,TGI,TK-10 renal,> 100 µM
same,GI50,SF-539 CNS,3.89 µM
same,TGI,SF-539 CNS,> 100 µM
same,GI50,HOP-62 NSCLC,96 µM
same,TGI,HOP-62 NSCLC,> 100 µM
same,GI50,T-47D breast,4.86 µM
same,TGI,T-47D breast,> 100 µM
same,GI50,M14 melanoma,3.84 µM
same,TGI,M14 melanoma,25.3 µM
same,GI50,MDA-MB-435,5.93 µM
same,TGI,MDA-MB-435,> 100 µM
same,GI50,KM12 colon,4.69 µM
same,TGI,KM12 colon,> 100 µM
same,GI50,IGROV1 ovarian,5.01 µM
same,TGI,IGROV1 ovarian,> 100 µM
same,GI50,SNB-75 CNS,2530 nM
same,TGI,SNB-75 CNS,74 µM
same,GI50,HOP-92 NSCLC,3.09 µM
same,TGI,HOP-92 NSCLC,23.3 µM
same,GI50,LOX IMVI melanoma,2620 nM
same,TGI,LOX IMVI melanoma,9.13 µM
same,GI50,SW-620 colon,8.27 µM
same,TGI,SW-620 colon,> 100 µM
same,GI50,SK-OV-3 ovarian,> 100 µM
same,TGI,SK-OV-3 ovarian,> 100 µM
same,GI50,SK-MEL-28 melanoma,15.7 µM
same,TGI,SK-MEL-28 melanoma,> 100 µM
same,GI50,U251 CNS,6.35 µM
same,TGI,U251 CNS,> 100 µM
same,GI50,COLO 205 colon,11.8 µM
same,TGI,COLO 205 colon,> 100 µM
same,GI50,SK-MEL-5 melanoma,3.36 µM
same,TGI,SK-MEL-5 melanoma,14.9 µM
same,GI50,MCF7 breast,3.16 µM
same,TGI,MCF7 breast,43.7 µM
same,GI50,HS 578T breast,5.7 µM
same,TGI,HS 578T breast,> 100 µM
same,GI50,SF-295 CNS,6.71 µM
same,TGI,SF-295 CNS,> 100 µM
same,GI50,HCT-116 colon,4.54 µM
same,TGI,HCT-116 colon,> 100 µM
same,GI50,HCC-2998 colon,4.22 µM
same,TGI,HCC-2998 colon,> 100 µM
same,GI50,A549 NSCLC,> 100 µM
same,TGI,A549 NSCLC,> 100 µM
